“Also recorded” adds a separate entry of the source. Read-outs that look alike come from different tables or passages of the source.
Tests used:
[1] = used clinically, or in clinical trials; cited from earlier work
[2] = test system: H1437 xenografts; experiment: H1437 xenograft treatment; format: in vivo, NSG mice; settings: verteporfin 50 mg/kg i.p. three times a week; S3I-201 5 mg/kg i.p. every day
Description: For therapeutic experiments, 4- to 5-week-old NOD/SCID/IL2Ry−/− (NSG) mice were obtained from the Johns Hopkins Medical Institute's (Baltimore, MD) animal care facility. We injected H1299 cells (1×106) and H1437 cells (1×106), which were suspended in the mixture as described above, subcutaneously into both flanks. For the patient-derived xenograft (PDX) models, 13 PDX blocks (CTG0162, 0178, 0502, 0848, 1309, 1351, 1358, 1361, 1762, 1885, 2017, 2481, and 2708) were obtained from Champion Oncology. All these PDXs were established from primary lung adenocarcinoma tumors. The tumor tissues were cut into 4×2 mm pieces and implanted in the subcutaneous spaces of both flanks. When tumor volumes reached to 200+50 mm3, mice were randomly assigned to six experimental groups [control, chemo (cisplatin+gemcitabine), chemo+verteporfin, chemo+S3I-201, “all” (cisplatin+gemcitabine+verteporfin+S3I-201), and verteporfin+S3I-201] at 5 mice per group. Cisplatin (Sigma-Aldrich; #P4394), gemcitabine (Medkoo; #100410), S3I-201 (MedKoo; #202541), and verteporfin (Sigma-Aldrich; #1711461) were used to treat the mice. Cisplatin (2.5 mg/kg) and gemcitabine (120 mg/kg) were administrated via intraperitoneal injection once a week (22). […] Each tumor volume was measured every 3 days. Therapeutic efficacy was evaluated from percentage change of the tumor volume compared with the tumor size before treatment.

[3] = target: YAP1 (Homo sapiens, UniProt P46937); settings: cited from earlier work
Chain of YAP1 (P46937 whole entry, species assumed): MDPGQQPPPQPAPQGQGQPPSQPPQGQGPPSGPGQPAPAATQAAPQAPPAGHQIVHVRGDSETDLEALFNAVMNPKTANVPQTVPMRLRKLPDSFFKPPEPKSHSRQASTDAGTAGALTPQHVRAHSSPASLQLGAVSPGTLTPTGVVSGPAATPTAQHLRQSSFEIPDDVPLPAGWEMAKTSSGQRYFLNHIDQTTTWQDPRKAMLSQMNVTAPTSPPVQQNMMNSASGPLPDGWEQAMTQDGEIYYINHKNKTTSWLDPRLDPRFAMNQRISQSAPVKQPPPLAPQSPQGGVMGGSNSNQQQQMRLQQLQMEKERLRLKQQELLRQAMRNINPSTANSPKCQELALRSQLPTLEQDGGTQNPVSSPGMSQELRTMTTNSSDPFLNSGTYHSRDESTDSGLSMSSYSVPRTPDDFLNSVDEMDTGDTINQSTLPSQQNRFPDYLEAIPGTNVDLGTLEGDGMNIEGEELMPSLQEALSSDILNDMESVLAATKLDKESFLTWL

[4] = test system: H1299 and H1437 cells; experiment: Immunoblotting of YAP1, STAT3 and pSTAT3 after drug treatment; format: cell-based, human
Procedure: Western blotting. Cells were dissolved in RIPA buffer (Thermo Fisher Scientific) supplemented with proteinase inhibitor and phosphatase inhibitor cocktails (Roche, Mannheim, Germany). After total protein lysate was electrophoretically transferred onto PVDF membrane, the membrane was blocked with 5% skim milk in 0.05% TBS-Tween buffer and incubated at 4° C. overnight with a primary antibody specific to each protein. The membrane was then probed with an appropriate secondary antibody (Cell Signaling Technology, Danvers, USA). β-actin served as an endogenous control. The primary antibodies and dilution ratios were β-actin (Sigma-Aldrich; #A2228; 1:5000), NANOG (D73G4; Cell Signaling Technology; #4903; 1:1000), OCT4 (D705Z; Cell Signaling Technology; #75463; 1:500), SOX2 (EPR3131; Abcam, Cambridge, UK; #ab92494; 1:500), STAT3 (124H6; Cell Signaling Technology; #9139; 1:2000), pSTAT3 (D3A7; Cell Signaling Technology; #9145; 1:1000) and YAP1 (EP1674Y; Abcam, #ab52771; 1:2000).
To determine doses of these drugs that are effective for pathway inhibition, H1299 and H1437 cells were treated with verteporfin or S3I-201 for 72 hours.

[5] = test system: MB49, UPPL596 and BBN 975; experiment: Cell derived xenografts treated with verteporfin; format: in vivo, C57BL/6 mice
Procedure: In vivo xenograft assay and treatment. For in vivo xenograft, cells were suspended in 100 μL of a 1:1 mixture of serum-free DMEM and Cultrex Stem Cell Qualified Reduced Growth Factor Basement Membrane Extract (Trevigen, Gaithersburg, USA), and then injected subcutaneously into the both flanks of C57BL/6 mice for MB49/UPPL595/BBN975 cells. For treatment, animals will be randomized to different treatment groups of 5 mice after growth of tumors to 100 mm3. The potential drugs are anti-PD-L1 monoclonal antibody (B7-H1, Bio X Cell, West Lebanon, USA) and verteporfin (NedKoo, Morrisville, USA). Verteporfin (50 mg/kg) will be administered via i.p. every other day. Anti-PD-L1 monoclonal antibody and the corresponding isotype antibody (200 μg/mouse) were administered via ip injection every 3 to 4 days. Treatment was performed for 14 days. To test the pharmacological inhibition of YAP1 on in vivo tumor growth in NSG and immune competent mice, CDXs were developed using three different mouse derived cancer cell lines (MB49, UPPL596 and BBN 975). Verteporfin was administered interperitoneally at a dose of 50 mg/kg body weight at every other day. […] Tumor mass values also indicate similar trend (FIG. 23C-23E; bottom).

C=Cc1c(C)c2cc3nc(cc4[nH]c(cc5nc(cc1[nH]2)C(C)=C5CCC(=O)O)c(CCC(=O)OC)c4C)[C@@]1(C)C3=CC=C(C(=O)OC)[C@H]1C(=O)OC [verteporfin, 3-[(23S,24R)-14-ethenyl-5-(3-methoxy-3-oxopropyl)-22,23-bis(methoxycarbonyl)-4,10,15,24-tetramethyl-25,26,27,28-tetraazahexacyclo[16.6.1.13,6.18,11.113,16.019,24]octacosa-1,3,5,7,9,11(27),12,14,16,18(25),19,21-dodecaen-9-yl]propanoic acid]
adverse effects [1]: few severe adverse effects were reported
tumor growth [2]: did not significantly affect tumor growth
binding to YAP1 and YAP1-TEAD2 interaction [3]: bind to YAP1 and change its conformation, thereby abrogating its interaction with TEAD2
STAT3 oligomerization (high molecular weight complexes) [4]: STAT3 oligomerization upon verteporfin treatment in a dose dependent manner; also recorded: high molecular weight complexes (regions surrounded by circles) were increased
YAP1 and total STAT3 protein expression [4]: both YAP1 and total STAT3 expressions were suppressed
YAP1 and total STAT3 protein expression ([4]; listed as Verteporfin): suppressed YAP1 and STAT3 expressions in H1299 and H1437 cells in a concentration dependent manner
tumor growth ([5]; 50 mg/kg body weight i.p. every other day, immune competent mice): significant regression in tumor growth
CCN1 and CCN2 expression (YAP1 downstream genes) ([5]; RT-qPCR): downregulated
YAP1 expression in the tumor tissue ([5]; pharmacodynamic analysis): decrease YAP1 expression
